Laboratory results from PMC5133702, “Liver-specific ATP-citrate lyase inhibition by bempedoic acid decreases LDL-C and attenuates atherosclerosis” (Nature Communications, 2016).
pKi: −log10 of the molar value.

Target: T1, ATP-citrate lyase (ACL) (Homo sapiens, UniProt P53396)
T1 construct: gene ACLY; recombinant human ACL
T1 sequence (P53396 1-1101): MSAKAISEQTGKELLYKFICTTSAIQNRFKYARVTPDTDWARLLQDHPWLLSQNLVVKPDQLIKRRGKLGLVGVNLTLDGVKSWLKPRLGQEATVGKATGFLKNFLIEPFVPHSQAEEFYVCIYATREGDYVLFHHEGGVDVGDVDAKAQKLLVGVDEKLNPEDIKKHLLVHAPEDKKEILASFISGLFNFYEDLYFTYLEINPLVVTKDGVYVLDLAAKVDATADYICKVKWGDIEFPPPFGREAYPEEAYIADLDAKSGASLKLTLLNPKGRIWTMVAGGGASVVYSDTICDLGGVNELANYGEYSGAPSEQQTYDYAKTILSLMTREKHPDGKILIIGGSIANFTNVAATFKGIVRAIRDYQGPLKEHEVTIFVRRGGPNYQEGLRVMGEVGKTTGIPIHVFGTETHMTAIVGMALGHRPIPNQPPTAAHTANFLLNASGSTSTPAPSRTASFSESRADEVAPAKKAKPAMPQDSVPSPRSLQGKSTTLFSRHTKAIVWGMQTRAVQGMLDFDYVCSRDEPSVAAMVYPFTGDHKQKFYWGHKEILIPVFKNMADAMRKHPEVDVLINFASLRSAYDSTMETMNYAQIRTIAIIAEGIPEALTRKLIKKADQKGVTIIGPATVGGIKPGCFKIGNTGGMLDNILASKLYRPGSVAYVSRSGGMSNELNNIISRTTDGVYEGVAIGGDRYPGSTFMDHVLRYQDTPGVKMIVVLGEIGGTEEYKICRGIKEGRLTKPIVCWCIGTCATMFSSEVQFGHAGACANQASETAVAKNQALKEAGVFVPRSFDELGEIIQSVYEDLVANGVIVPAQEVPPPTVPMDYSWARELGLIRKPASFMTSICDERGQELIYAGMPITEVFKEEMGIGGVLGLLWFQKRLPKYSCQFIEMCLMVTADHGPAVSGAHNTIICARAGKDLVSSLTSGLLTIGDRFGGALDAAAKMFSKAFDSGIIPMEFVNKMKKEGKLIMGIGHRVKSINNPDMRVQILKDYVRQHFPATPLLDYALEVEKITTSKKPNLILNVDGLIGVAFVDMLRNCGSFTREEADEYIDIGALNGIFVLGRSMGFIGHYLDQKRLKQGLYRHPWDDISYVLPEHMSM
Experiment: cell-free radiometric assay, […]-citrate to […]-acetyl-CoA, enzyme kinetics
Type: biochemical

pKi: 5.70
Compound: CC(C)(CCCCCC(O)CCCCCC(C)(C)C(=O)SCCNC(=O)CCNC(=O)[C@H](O)C(C)(C)COP(=O)(O)OP(=O)(O)OC[C@H]1O[C@@H](n2cnc3c(N)ncnc32)[C@H](O)[C@@H]1OP(=O)(O)O)C(=O)O (stereo partly shown) [ETC-1002-CoA]
